Test results from PMC3907829, “Characterization of an Invertebrate-Type Dopamine Receptor of the American Cockroach, Periplaneta americana” (International Journal of Molecular Sciences, 2014).
Several values for one entry are separate records, joined by “and”; a condition that tells them apart may be missing. Equal entries are not always repeated. Entries after “also recorded” stand apart in the source; their conditions may differ. Structures can show the parent of a compound that is named as a salt. Where two headings read alike, the source gives them in different places. Blank lines part the entries; values can stand above or below the molecule they belong to.

Assays:
PeaDOP2A receptor [1] = target: T1, PeaDOP2A receptor (Periplaneta americana, UniProt V6DNI7); assay: cAMP production in HEK 293 cells stably expressing PeaDOP2A; format: cell-based; details: for effect on dopamine-induced increase in [cAMP]i (antagonist, in words): co-incubation with dopamine; for effect on [cAMP]i (agonist, in words): ligand 10 μM
Description: Stably transfected cells were selected in the presence of the antibiotic G418 at 0.8 mg/mL. Isolated foci were propagated and analyzed for the expression of PeaDOP2A/B-HA by immunocytochemistry and Western blot analysis with a commercial anti-HA antibody (anti-HA high affinity; Roche, Penzberg, Germany).

PeaDOP2B receptor [2] = assay: cAMP production in HEK 293 cells stably expressing PeaDOP2B; format: cell-based, Periplaneta americana; details: for change of intracellular cAMP level: biogenic amines 10 μM
Description: Approximately 8 μg pcPeadop2A/B-HA vector was separately introduced into exponentially growing HEK 293 cells (~4 × 10^5 cells per 5 cm Petri dish; Greiner, Frickenhausen, Germany) by a modified calcium phosphate method. Stably transfected cells were selected in the presence of the antibiotic G418 at 0.8 mg/mL. Isolated foci were propagated and analyzed for the expression of PeaDOP2A/B-HA by immunocytochemistry and Western blot analysis with a commercial anti-HA antibody (anti-HA high affinity; Roche, Penzberg, Germany).

[3] = target: Bombyx mori DOP2 receptor; details: read-out: EC50 for dopamine-induced cAMP increase; cited from earlier work
PeaDOP2B receptor [4] = details: PeaDOP2B cell line
PeaDOP2A receptor [5] = target: T1, PeaDOP2A receptor; details: PeaDOP2A cell line
[6] = target: D. melanogaster DOP2 receptor; details: read-out: EC50 for dopamine-induced cAMP increase; cited from earlier work
[7] = test system: non-transfected HEK 293 cells; details: dopamine 1 nM to 10 μM
Description: Assays to determine the ability of PeaDOP2A/B-HA receptors to stimulate adenylyl cyclase activity were performed as described earlier [108]. PeaDOP2A/B-expressing cells were grown in minimal essential medium with GlutaMAX™ (Invitrogen, Karlsruhe, Germany), 10% (v/v) fetal bovine serum, 1% (v/v) non-essential amino acids, and antibiotics (all from Invitrogen, Karlsruhe, Germany). Cells were incubated with ligands for 30 min at 37 °C in the presence of the phosphodiesterase inhibitor isobutylmethylxanthine (IBMX; Sigma, Taufkirchen, Germany; final concentration 100 μM) and lysed by adding 0.5 mL ice-cold ethanol. After 1 h at 4 °C, the lysate was transferred to a reaction tube and lyophilized. The amount of cAMP produced was determined by using the TRK 432 cyclic AMP assay kit (GE Healthcare, Freiburg, Germany).

C. felis DOP2 receptor = details: read-out: EC50 for dopamine-induced cAMP increase; cited from earlier work
[8] = target: A. mellifera DOP2 receptor; details: read-out: EC50 for dopamine-induced cAMP increase; cited from earlier work
[9] = agonist, HEK 293 cells expressing PeaDOP2A, 30 min, 37 °C, 100 μM IBMX, read-out: EC50 for increasing [cAMP]i
[10] = agonist, log of molar EC50 (negative values), PeaDOP2A-expressing HEK 293 cells
[11] = antagonist, in the presence of 300 nM dopamine, PeaDOP2A-expressing HEK 293 cells, read-out: IC50 for blocking dopamine (300 nM)-induced cAMP increase
[12] = IC50 for blocking dopamine (300 nM)-induced cAMP increase, antagonist, in the presence of 300 nM dopamine, PeaDOP2A-expressing HEK 293 cells
[13] = log IC50, antagonist, log of molar IC50 (negative values), in the presence of 300 nM dopamine

T1 sequence (V6DNI7 entry or part of it): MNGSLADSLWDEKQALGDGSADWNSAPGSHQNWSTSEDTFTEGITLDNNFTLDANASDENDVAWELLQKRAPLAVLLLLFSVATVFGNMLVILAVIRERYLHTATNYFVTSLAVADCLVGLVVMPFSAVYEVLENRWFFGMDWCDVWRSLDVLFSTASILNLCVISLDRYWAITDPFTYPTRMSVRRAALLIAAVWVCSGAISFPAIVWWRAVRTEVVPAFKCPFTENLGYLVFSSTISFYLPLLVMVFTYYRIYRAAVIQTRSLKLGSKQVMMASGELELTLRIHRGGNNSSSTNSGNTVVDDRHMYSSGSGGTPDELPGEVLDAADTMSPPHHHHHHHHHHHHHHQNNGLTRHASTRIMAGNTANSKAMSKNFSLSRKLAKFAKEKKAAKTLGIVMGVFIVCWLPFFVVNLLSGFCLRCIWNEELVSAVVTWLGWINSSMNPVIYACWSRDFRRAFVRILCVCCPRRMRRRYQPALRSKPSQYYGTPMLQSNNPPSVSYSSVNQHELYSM

Structure (SMILES): Cl.Cl.OCCN1CCN(CCC=C2c3ccccc3Sc3ccc(C(F)(F)F)cc32)CC1 (mixture of isomers) [flupentixol, cis(Z)-flupentixol dihydrochloride]
cAMP as percentage of the value with 300 nM dopamine (=100%) (PeaDOP2A receptor [1]; 10 μM antagonist in the presence of 300 nM dopamine, basal level […]): 7.0%
effect on dopamine-induced increase in [cAMP]i (antagonist, in words) (PeaDOP2A receptor [1]; PeaDOP2A-expressing cells): able to counteract the dopamine-induced increase in [cAMP]i fully
effect on dopamine-induced increase in [cAMP]i (antagonist, in words) (PeaDOP2A receptor [1]; PeaDOP2A-expressing cells, listed as cis(Z)-flupentixol): abolished
log IC50 (PeaDOP2A receptor [1]; antagonist, log of molar IC50 (negative values), in the presence of 300 nM dopamine): −8.189

Structure (SMILES): NC1CCc2cc(O)c(O)cc2C1 (racemic) [6,7-ADTN, (±)-2-amino-6,7-dihydroxy-1,2,3,4-tetrahydronaphthalene]
effect on [cAMP]i (agonist, in words) (PeaDOP2A receptor [1]; PeaDOP2A-expressing cells): lead to an increase in [cAMP]i; also recorded: mimicked
EC50 (PeaDOP2A receptor [1]; [9]): 76.4 nM
logEC50 (PeaDOP2A receptor [1]; [10]): −7.117

EC50 (PeaDOP2A receptor [1]; [9]): 382 nM
logEC50 (PeaDOP2A receptor [1]; [10]): −6.418
Structure (SMILES): C=CCN1CCc2c(cc(O)c(O)c2Cl)C(c2ccccc2)C1 (racemic) [6-chloro-APB, (±)-6-Chloro-7,8-dihydroxy-3-allyl-1-phenyl-2,3,4,5-tetrahydro-1H-3-benzazepine]
effect on [cAMP]i (agonist, in words) (PeaDOP2A receptor [1]; PeaDOP2A-expressing cells): lead to an increase in [cAMP]i; also recorded: mimicked

effect on [cAMP]i (agonist, in words) (PeaDOP2A receptor [1]; PeaDOP2A-expressing cells): no effect
Structure (SMILES): NCC(O)c1ccc(O)cc1 (racemic) [octopamine, (±)-octopamine hydrochloride]
change of intracellular cAMP level (PeaDOP2B receptor [2]): None of the biogenic amines induced a change

IC50 (PeaDOP2A receptor [1]; [11]): 1790 nM
IC50 (PeaDOP2A receptor [1]; antagonist, log of molar IC50 (negative values), in the presence of 300 nM dopamine, read-out: log IC50 (converted)): 1790 nM
Structure (SMILES): CN1CCc2cc(Cl)c(O)cc2[C@@H](c2ccccc2)C1 [SCH 23390, R(+)-SCH 23390 hydrochloride]
effect on dopamine-induced increase in [cAMP]i (antagonist, in words) (PeaDOP2A receptor [1]; PeaDOP2A-expressing cells): able to counteract the dopamine-induced increase in [cAMP]i fully

effect on [cAMP]i (agonist, in words) (PeaDOP2A receptor [1]; PeaDOP2A-expressing cells): does not show any effect
Structure (SMILES): Oc1cc2c(cc1O)[C@@H](c1ccccc1)CNCC2 [SKF 38393, R(+)-SKF 38393 hydrochloride]

effect on [cAMP]i (agonist, in words) (PeaDOP2A receptor [1]; PeaDOP2A-expressing cells): lead to an increase in [cAMP]i
Structure (SMILES): CN1CCc2cccc3c2[C@H]1Cc1ccc(O)c(O)c1-3 [apomorphine, apomorphine hydrochloride hemihydrate]

Structure (SMILES): CC(C)C[C@H]1C(=O)N2CCC[C@H]2[C@]2(O)O[C@](NC(=O)[C@@H]3C=C4c5cccc6[nH]c(Br)c(c56)C[C@H]4N(C)C3)(C(C)C)C(=O)N12 [bromocriptine, bromocriptine mesylate]
effect on [cAMP]i (agonist, in words) (PeaDOP2A receptor [1]; PeaDOP2A-expressing cells): fails to increase [cAMP]i

IC50 (PeaDOP2A receptor [1]; [12]): 326 nM
IC50 (PeaDOP2A receptor [1]; [13]): 326 nM
Structure (SMILES): CC(C)(C)[C@]1(O)CCN2C[C@H]3c4ccccc4CCc4cccc(c43)[C@@H]2C1 [butaclamol, S(+)-butaclamol hydrochloride]
effect on dopamine-induced increase in [cAMP]i (antagonist, in words) (PeaDOP2A receptor [1]; PeaDOP2A-expressing cells): able to counteract the dopamine-induced increase in [cAMP]i fully

IC50 (PeaDOP2A receptor [1]; [12]): 2.7 nM
IC50 (PeaDOP2A receptor [1]; [13]): 2.7 nM
Structure (SMILES): CN(C)CCCN1c2ccccc2Sc2ccc(Cl)cc21 [chlorpromazine, Chlorpromazine hydrochloride]
effect on dopamine-induced increase in [cAMP]i (antagonist, in words) (PeaDOP2A receptor [1]; PeaDOP2A-expressing cells): able to counteract the dopamine-induced increase in [cAMP]i fully; also recorded: abolished

Structure (SMILES): NCCc1ccc(O)c(O)c1 [dopamine, dopamine hydrochloride]
EC50 [3]: 1300 nM
change of intracellular cAMP level (PeaDOP2B receptor [2]): None of the biogenic amines induced a change
effect on [cAMP]i, dose-response (PeaDOP2B receptor [2]; dopamine 1 nM to 10 μM): None of the dopamine concentrations showed an effect; also recorded: does not affect [cAMP]i
change in [Ca2+]i upon dopamine incubation (PeaDOP2B receptor [4]): Neither PeaDOP2 receptor cause changes in [Ca^2+]i
change in [Ca2+]i upon dopamine incubation (PeaDOP2A receptor [5]): Neither PeaDOP2 receptor cause changes in [Ca^2+]i
EC50 [6]: 350 nM
cAMP production (PeaDOP2A receptor [1]; 10 μM ligand, PeaDOP2A-expressing cells): 300 pmol cAMP/mg protein
EC50 (PeaDOP2A receptor [1]; EC50 for increasing [cAMP]i, agonist, HEK 293 cells expressing PeaDOP2A, 30 min, 37 °C, 100 μM IBMX): 160 nM and 163 nM
concentration for maximal stimulation of cAMP synthesis (PeaDOP2A receptor [1]; PeaDOP2A-expressing cells, dose range 1 nM to 10 μM): ≥ 1 µM
effect on [cAMP]i (agonist, in words) (PeaDOP2A receptor [1]; PeaDOP2A-expressing cells): leads to an increase in [cAMP]i
EC50 (PeaDOP2A receptor [1]; logEC50, agonist, log of molar EC50 (negative values), PeaDOP2A-expressing HEK 293 cells): 166 nM and 163 nM
effect on [cAMP]i, dose-response [7]: None of the dopamine concentrations showed an effect
EC50 (C. felis DOP2 receptor): 2400 nM
EC50 [8]: 2200 nM

Structure (SMILES): OCCN1CCN(CC/C=C2/c3ccccc3Sc3ccc(C(F)(F)F)cc32)CC1 [flupentixol, cis(Z)-flupentixol dihydrochloride]
IC50 (PeaDOP2A receptor [1]; [11]): 6.5 nM

Structure (SMILES): NCCc1c[nH]cn1 [histamine, histamine dihydrochloride]
change of intracellular cAMP level (PeaDOP2B receptor [2]): None of the biogenic amines induced a change
effect on [cAMP]i (agonist, in words) (PeaDOP2A receptor [1]; PeaDOP2A-expressing cells): no effect

Structure (SMILES): Cl.NCCc1c[nH]c2ccc(O)cc12 [serotonin, 5-hydroxytryptamine hydrochloride]
change of intracellular cAMP level (PeaDOP2B receptor [2]): None of the biogenic amines induced a change
effect on [cAMP]i (agonist, in words) (PeaDOP2A receptor [1]; PeaDOP2A-expressing cells): no effect

effect on [cAMP]i (agonist, in words) (PeaDOP2A receptor [1]; PeaDOP2A-expressing cells): no effect
Structure (SMILES): NCCc1ccc(O)cc1 [tyramine, tyramine hydrochloride]
change of intracellular cAMP level (PeaDOP2B receptor [2]): None of the biogenic amines induced a change
